From PubChem BioAssay AID463149 (The Scripps Research Institute Molecular Screening Center, 2010)

Tests used:
Test in all cases: PME-1 inhibitors in HeLa proteome, late-stage follow-up, selectivity assay, cell lysate, gel-based competitive ABPP, fluorescence, powder samples (AID 463149);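 also: 0% = DMSO-treated band intensity and 100% = blank gel background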
[1] = target: Acylamino-acid-releasing enzyme (Homo sapiens) (UniProt P13798); conditions: HeLa soluble proteome, FP-Rh fluorescence, measured here: Anti-Target APEH, stronger effect = higher value
Acylamino-acid-releasing enzyme (Homo sapiens), sequence (P13798 whole entry, looked up): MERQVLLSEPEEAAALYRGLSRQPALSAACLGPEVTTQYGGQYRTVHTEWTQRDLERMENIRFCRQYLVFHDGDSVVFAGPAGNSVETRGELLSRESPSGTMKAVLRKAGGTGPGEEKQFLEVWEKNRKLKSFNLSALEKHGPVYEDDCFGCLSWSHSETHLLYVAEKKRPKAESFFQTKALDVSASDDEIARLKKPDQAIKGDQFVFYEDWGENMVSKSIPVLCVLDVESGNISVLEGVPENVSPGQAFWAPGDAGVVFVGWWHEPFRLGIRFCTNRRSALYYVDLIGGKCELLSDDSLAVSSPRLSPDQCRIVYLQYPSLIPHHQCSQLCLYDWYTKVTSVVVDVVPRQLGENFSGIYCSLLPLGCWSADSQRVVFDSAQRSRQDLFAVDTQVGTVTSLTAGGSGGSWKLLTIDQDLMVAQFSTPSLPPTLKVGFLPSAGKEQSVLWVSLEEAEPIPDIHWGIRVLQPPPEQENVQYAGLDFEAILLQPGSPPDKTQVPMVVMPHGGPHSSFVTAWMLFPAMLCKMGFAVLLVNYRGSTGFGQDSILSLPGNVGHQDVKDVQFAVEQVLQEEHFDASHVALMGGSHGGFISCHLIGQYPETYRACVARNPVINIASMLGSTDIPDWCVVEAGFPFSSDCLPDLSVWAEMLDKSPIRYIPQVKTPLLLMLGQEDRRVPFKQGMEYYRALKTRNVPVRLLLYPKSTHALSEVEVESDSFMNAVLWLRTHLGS

Anti-Target ABHD10 = conditions: HeLa soluble proteome, FP-Rh fluorescence, stronger effect = higher value
Anti-Target CES = conditions: HeLa soluble proteome, FP-Rh fluorescence, measured here: Anti-Target CES, stronger effect = higher value
Anti-Target PREP = conditions: HeLa soluble proteome, FP-Rh fluorescence, measured here: Anti-Target PREP, stronger effect = higher value
[2] = target: Fatty acid synthase (Homo sapiens) (UniProt P49327); conditions: HeLa soluble proteome, FP-Rh fluorescence, measured here: Anti-Target FAS, stronger effect = higher value
Fatty acid synthase (Homo sapiens), sequence (P49327 whole entry, looked up): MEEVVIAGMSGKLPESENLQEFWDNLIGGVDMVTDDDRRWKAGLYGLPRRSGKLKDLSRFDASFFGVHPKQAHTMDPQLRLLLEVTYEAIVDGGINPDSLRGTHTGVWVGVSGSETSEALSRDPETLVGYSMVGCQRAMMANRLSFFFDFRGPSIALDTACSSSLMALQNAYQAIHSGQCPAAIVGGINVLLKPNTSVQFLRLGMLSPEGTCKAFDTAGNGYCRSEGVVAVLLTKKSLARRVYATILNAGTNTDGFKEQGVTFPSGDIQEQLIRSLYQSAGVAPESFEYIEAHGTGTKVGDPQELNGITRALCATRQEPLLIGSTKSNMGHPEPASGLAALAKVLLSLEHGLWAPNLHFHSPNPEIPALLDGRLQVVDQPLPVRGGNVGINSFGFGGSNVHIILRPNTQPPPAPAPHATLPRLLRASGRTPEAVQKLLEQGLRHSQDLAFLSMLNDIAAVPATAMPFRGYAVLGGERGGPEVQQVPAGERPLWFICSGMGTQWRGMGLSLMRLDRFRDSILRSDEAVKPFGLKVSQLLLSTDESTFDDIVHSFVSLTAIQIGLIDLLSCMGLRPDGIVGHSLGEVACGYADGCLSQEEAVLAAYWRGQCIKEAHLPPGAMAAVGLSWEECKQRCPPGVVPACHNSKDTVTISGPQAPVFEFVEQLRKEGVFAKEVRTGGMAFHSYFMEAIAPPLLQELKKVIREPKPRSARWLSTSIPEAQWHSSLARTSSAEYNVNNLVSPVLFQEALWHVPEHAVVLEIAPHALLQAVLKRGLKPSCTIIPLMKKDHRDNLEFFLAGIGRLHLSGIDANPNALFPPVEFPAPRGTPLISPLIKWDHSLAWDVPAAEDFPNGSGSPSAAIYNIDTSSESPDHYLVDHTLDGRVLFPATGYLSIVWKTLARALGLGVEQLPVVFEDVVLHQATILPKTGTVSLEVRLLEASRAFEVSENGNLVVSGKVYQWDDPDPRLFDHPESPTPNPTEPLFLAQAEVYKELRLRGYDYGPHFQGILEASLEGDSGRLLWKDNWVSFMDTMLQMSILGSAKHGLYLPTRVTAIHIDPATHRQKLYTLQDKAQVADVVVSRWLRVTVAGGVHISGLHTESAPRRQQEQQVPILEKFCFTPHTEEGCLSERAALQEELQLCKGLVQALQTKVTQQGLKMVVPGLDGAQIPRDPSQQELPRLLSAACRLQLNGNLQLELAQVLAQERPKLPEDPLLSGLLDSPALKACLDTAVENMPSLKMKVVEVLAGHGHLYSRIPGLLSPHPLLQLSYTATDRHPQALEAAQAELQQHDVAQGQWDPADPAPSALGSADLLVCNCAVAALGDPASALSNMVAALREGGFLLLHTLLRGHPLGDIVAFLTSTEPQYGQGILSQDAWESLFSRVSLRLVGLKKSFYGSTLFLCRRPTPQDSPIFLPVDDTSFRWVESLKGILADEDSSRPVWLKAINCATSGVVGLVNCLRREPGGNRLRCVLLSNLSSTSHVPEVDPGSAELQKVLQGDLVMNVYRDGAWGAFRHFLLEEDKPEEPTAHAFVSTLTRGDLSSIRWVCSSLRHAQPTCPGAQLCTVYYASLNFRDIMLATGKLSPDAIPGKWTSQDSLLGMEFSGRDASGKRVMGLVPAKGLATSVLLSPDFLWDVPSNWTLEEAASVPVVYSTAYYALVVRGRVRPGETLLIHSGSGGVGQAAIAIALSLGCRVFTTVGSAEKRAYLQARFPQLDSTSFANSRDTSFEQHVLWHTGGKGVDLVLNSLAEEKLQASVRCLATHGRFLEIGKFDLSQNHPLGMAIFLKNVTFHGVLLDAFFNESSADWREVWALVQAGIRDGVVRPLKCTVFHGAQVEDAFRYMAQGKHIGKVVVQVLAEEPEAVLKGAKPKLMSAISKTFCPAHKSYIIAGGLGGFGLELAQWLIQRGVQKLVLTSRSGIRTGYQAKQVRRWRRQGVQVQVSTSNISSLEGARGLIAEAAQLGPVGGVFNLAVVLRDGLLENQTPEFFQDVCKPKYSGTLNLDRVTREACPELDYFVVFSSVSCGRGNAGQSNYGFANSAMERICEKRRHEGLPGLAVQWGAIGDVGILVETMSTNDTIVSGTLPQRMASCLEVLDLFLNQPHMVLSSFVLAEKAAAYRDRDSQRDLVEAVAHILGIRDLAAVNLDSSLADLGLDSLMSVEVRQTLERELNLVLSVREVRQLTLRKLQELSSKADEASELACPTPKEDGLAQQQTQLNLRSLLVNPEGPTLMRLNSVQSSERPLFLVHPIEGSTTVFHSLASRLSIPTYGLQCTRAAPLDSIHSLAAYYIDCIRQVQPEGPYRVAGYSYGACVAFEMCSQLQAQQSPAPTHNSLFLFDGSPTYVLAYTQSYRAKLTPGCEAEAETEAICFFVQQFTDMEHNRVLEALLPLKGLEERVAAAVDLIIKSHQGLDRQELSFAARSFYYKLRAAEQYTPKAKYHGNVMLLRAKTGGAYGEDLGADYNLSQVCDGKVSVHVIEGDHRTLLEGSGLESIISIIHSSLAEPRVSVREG

[3] = target: Protein phosphatase methylesterase 1 (Homo sapiens) (UniProt Q9Y570); conditions: HeLa soluble proteome, FP-Rh fluorescence, stronger effect = higher value
Protein phosphatase methylesterase 1 (Homo sapiens), sequence (Q9Y570 whole entry, looked up): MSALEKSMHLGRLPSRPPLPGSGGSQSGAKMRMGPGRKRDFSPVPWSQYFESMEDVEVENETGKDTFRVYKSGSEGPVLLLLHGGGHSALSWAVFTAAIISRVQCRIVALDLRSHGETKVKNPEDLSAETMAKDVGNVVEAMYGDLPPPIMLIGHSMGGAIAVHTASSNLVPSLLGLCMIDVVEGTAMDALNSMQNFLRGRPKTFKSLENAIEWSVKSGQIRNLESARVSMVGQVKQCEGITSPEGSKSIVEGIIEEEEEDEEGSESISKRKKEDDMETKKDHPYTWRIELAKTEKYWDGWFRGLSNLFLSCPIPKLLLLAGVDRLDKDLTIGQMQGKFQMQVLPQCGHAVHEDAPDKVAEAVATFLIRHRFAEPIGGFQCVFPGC

[4] = measured here: Anti-Target ABHD10, at 1 µM
[5] = measured here: Anti-Target ABHD10, at 20 µM

inhibition ([1]; at 1 µM) | inhibition ([1]; at 20 µM) | inhibition (Anti-Target ABHD10; [4]) | inhibition (Anti-Target ABHD10; [5]) | inhibition (Anti-Target CES; at 1 µM) | inhibition (Anti-Target CES; at 20 µM) | inhibition (Anti-Target PREP; at 1 µM) | inhibition (Anti-Target PREP; at 20 µM) | inhibition ([2]; at 1 µM) | inhibition ([2]; at 20 µM) | inhibition ([3]; PME-1, at 0.1 µM) | inhibition ([3]; PME-1, inhibition, at 1 µM) | inhibition ([3]; PME-1, inhibition, at 20 µM) | SMILES
0% | > 50% | 0% | 0% | 0% | 0% | 0% | 0% | 0% | > 50% | 100% | 100% | 100% | COC(=O)N1C(=O)[C@](c2ccccc2)(C2CCCC2)N1C(=O)OC
0% | 0% | 0% | 0% | 0% | 0% | 0% | 0% | 0% | > 50% | 90% | 100% | 100% | COC(=O)N1C(=O)[C@](c2ccccc2)(C2CCCCC2)N1C(=O)OC
0% | 0% | 0% | 50% | > 50% | > 50% | 0% | > 50% | 0% | > 50% |  | 0% | 100% | CC[C@@]1(c2cccc(C)c2)C(=O)N(C(=O)OC)N1C(=O)OC
0% | 0% | 0% | 0% | 0% | 0% | 0% | 0% | 0% | 0% |  | 100% | 100% | COC(=O)N1C(=O)[C@@](c2ccccc2)(C2CCCCC2)N1C(=O)OC
0% | 0% | 0% | 0% | 0% | > 50% | 0% | 0% | 0% | 0% |  | 0% | 100% | COC(=O)N1C(=O)[C@@](c2ccccc2)(C(C)C)N1C(=O)OC
